# Reference: article PMC8037814, “Polymorphic Characterization, Pharmacokinetics, and Anti-Inflammatory Activity of Ginsenoside Compound K Polymorphs” (Molecules, 2021)
# Values joined by “and” are separate entries in the source; they are usually repeats but may differ in a detail not shown here. Identical values can stand only once. Like-named read-outs stand apart in the source and are kept apart here.
# Experiment: Pharmacokinetics after intravenous administration of CK in rats (10 mg/kg)
# Assay type: in vivo, Sprague-Dawley rats
# Settings: i.v. 10 mg/kg; for concentration at 0.5 min / concentration at 0.05 h / concentration at 8 min / concentration at 0.25 h / concentration at 0.5 h / concentration at 1 h / concentration at 2 h / concentration at 4 h / concentration at 6 h / concentration at 9 h: read-out: Plasma concentrations of CK; for MRT last: read-out: MRT(0-t); for MRT inf: read-out: MRT(0-∞); for half-life: read-out: t1/2z (converted)
# Procedure: All samples were analyzed with a triple quadrupole LC-MS/MS (API 4000 LC-MS/MS, AB Sciex, Framingham, MA, USA) coupled with an Agilent 1200 HPLC system (Agilent Technologies, Palo Alto, CA, USA). The MS was equipped with an electrospray system (ESI). The N2 gas temperature and ion-spray voltage were set to 550 °C and 4.5 kV, respectively. CK was measured in multiple reaction monitoring (MRM) mode using a negative electrospray ionization source at m/z 667.4 → 621.2 for CK (CID 25.6 v) and m/z 271.2 → 228.8 for internal standard (IS, (E)-5-(4-fluorostyryl)-2-isopropylbenzene-1,3-diol, Welichem Biotech Inc., Wayburne Drive Burnaby, BC, Canada) (CID 28.3 v) with a dwell time of 0.1 s.
# Rats were divided randomly into 5 groups of six animals each (sex in half) and given 7 days to acclimatize to the facility before the experiments began. The four forms of CK were suspended in 0.5% sodium carboxymethyl cellulose (CMC-Na) solution and orally administered to rats at a dose of 20 mg/kg. A CK solution in a mixed solvent of dimethyl sulfoxide (DMSO)/castor oil/physiologic saline (3:5:92, v/v) was intravenously administered to the remaining group via the tail vein at a dose of 10 mg/kg. Blood samples were collected by retro-orbital puncture at the following times: 0.167, 0.333, 0.667, 1, 2, 3, 4, 6, 9, 12, and 24 h for the oral administration, and at 0.0083, 0.05, 0.133, 0.25, 0.5, 1, 2, 4, 6, and 9 h for the intravenous administration. Plasma samples were obtained by centrifuging a heparinized blood tube at 4000 rpm for 5 min and then stored at −70 °C until analysis.
# The procedure for drug extraction from plasma samples was as follows: 0.2 mL acetonitrile, 0.2 mL plasma sample, and 10 μL IS (1 µg/mL) were added into a 1.5 mL Eppendorf-type tube. This mixture was vortexed for 1 min and then treated with 0.8 mL of methyl tert-butyl ether (MTBE) to precipitate the plasma proteins. After a mechanical vortex for 1 min and subsequent centrifugation (4000 rpm, 5 min), 0.8 mL of the supernatant was transferred and blow-dried with N2 at 40 °C in a water bath. Finally, the residue was dissolved in 120 μL of mobile phase, and then 10 μL was subjected to HPLC for analysis. […] Intra- and inter-day precision and accuracy never exceeded 15% by analyzing six replicate samples.
# The CK pharmacokinetic parameters in rats, including the area under the curve (AUC(0–t) and AUC(0–∞)), mean residence time (MRT(0–t) and MRT(0–∞)), maximum concentration (Cmax), time to maximum concentration (Tmax), half-life (t1/2), apparent distribution volume (V), and total plasma clearance (CL), were derived from plasma concentration-time curves by using non-compartmental analysis (NCA) with DAS 2.0 software (Drug And Statistics, Mathematical Pharmacology Professional Committee of China, Shanghai, China). The absolute bioavailability (Fabs) was calculated from the dose-adjusted ratio of AUCp.o. to AUCi.v.. One-way analysis of variance (ANOVA) by SPSS 11.5 (SPSS Inc., Chicago, IL, USA) was conducted to compare the primary PK parameters.
# [1] = female rats, individual rats 1-3, 10 mg/kg
# [2] = female, Sprague-Dawley, rat, plasma, iv, 10 mg/kg, female rats, Mean±SD
# [3] = male rats, individual rats 1-3, 10 mg/kg
# [4] = male, Sprague-Dawley, rat, plasma, iv, 10 mg/kg, male rats, Mean±SD
# [5] = male, Sprague-Dawley, rat, plasma, iv, 10 mg/kg, male rats, individual rats 1-3
compound,measurement,setting,value
"CC(C)=CCCC(C)(OC1OC(CO)C(O)C(O)C1O)C1CCC2(C)C1C(O)CC1C3(C)CCC(O)C(C)(C)C3CCC12C [CK, 20-O-β-D-glucopyranosyl-20(S)-protopanaxadiol]",Plasma concentrations of CK,"female rats, 0.5 min, individual rats 1-3, 10 mg/kg",54838.90 ng/mL and 127905.96 ng/mL and 48362.17 ng/mL
same,Plasma concentrations of CK,"female rats, 0.05 h, individual rats 1-3, 10 mg/kg",15185.26 ng/mL and 25786.82 ng/mL and 6748.70 ng/mL
same,Plasma concentrations of CK,"female rats, 8 min, individual rats 1-3, 10 mg/kg",1631.02 ng/mL and 4937.02 ng/mL and 980.77 ng/mL
same,Plasma concentrations of CK,"female rats, 0.25 h, individual rats 1-3, 10 mg/kg",672.83 ng/mL and 1554.81 ng/mL and 553.32 ng/mL
same,Plasma concentrations of CK,"female rats, 0.5 h, individual rats 1-3, 10 mg/kg",411.75 ng/mL and 359.74 ng/mL
same,Plasma concentrations of CK,"female rats, 1 h, individual rats 1-3, 10 mg/kg",117.01 ng/mL and 136.73 ng/mL and 243.80 ng/mL
same,Plasma concentrations of CK,"female rats, 2 h, individual rats 1-3, 10 mg/kg",136.06 ng/mL and 82.52 ng/mL
same,Plasma concentrations of CK,"female rats, 4 h, individual rats 1-3, 10 mg/kg",63.54 ng/mL and 48.16 ng/mL and 99.22 ng/mL
same,Plasma concentrations of CK,"female rats, 6 h, individual rats 1-3, 10 mg/kg",27.72 ng/mL and 22.95 ng/mL and 47.61 ng/mL
same,Plasma concentrations of CK,"female rats, 9 h, individual rats 1-3, 10 mg/kg",27.31 ng/mL and 14.83 ng/mL and 34.93 ng/mL
same,CLz/F,"female rats, Mean±SD",92.7 ± 34.3 mL/min/kg
same,Vz/F,"female rats, Mean±SD",17.75 ± 7.49 L/kg
same,AUC(0-t),[1],3164.67 ng·h/mL and 6150.84 ng·h/mL and 2722.08 ng·h/mL
same,AUC(0-∞),[1],3206.10 ng·h/mL and 6173.20 ng·h/mL and 2779.29 ng·h/mL
same,CLz/F,[1],104 mL/min/kg and 54 mL/min/kg and 120 mL/min/kg
same,MRT(0-t),[1],34.2 min and 15.6 min and 60 min
same,MRT(0-∞),[1],56.4 min and 20.4 min and 86.4 min
same,Vz/F,[1],21.99 L/kg and 9.10 L/kg and 22.17 L/kg
same,t1/2z,[1],117 min and 128 min
same,concentration at 0.5 min,"female, Sprague-Dawley, rat, plasma, iv, 10 mg/kg, female rats, 0.5 min, Mean±SD",77000 ± 44200 ng/mL
same,concentration at 0.05 h,"female, Sprague-Dawley, rat, plasma, iv, 10 mg/kg, female rats, 0.05 h, Mean±SD",15900 ± 9540 ng/mL
same,concentration at 8 min,"female, Sprague-Dawley, rat, plasma, iv, 10 mg/kg, female rats, 8 min, Mean±SD",2520 ± 2120 ng/mL
same,concentration at 0.25 h,"female, Sprague-Dawley, rat, plasma, iv, 10 mg/kg, female rats, 0.25 h, Mean±SD",927 ± 547 ng/mL
same,concentration at 0.5 h,"female, Sprague-Dawley, rat, plasma, iv, 10 mg/kg, female rats, 0.5 h, Mean±SD",354 ± 60.4 ng/mL
same,concentration at 0.5 h,"female, Sprague-Dawley, rat, plasma, iv, 10 mg/kg, female rats, 0.5 h, individual rats 1-3",291 ng/mL
same,concentration at 1 h,"female, Sprague-Dawley, rat, plasma, iv, 10 mg/kg, female rats, 1 h, Mean±SD",166 ± 68.2 ng/mL
same,concentration at 2 h,"female, Sprague-Dawley, rat, plasma, iv, 10 mg/kg, female rats, 2 h, Mean±SD",102 ± 29.8 ng/mL
same,concentration at 2 h,"female, Sprague-Dawley, rat, plasma, iv, 10 mg/kg, female rats, 2 h, individual rats 1-3",86.6 ng/mL
same,concentration at 4 h,"female, Sprague-Dawley, rat, plasma, iv, 10 mg/kg, female rats, 4 h, Mean±SD",70.3 ± 26.2 ng/mL
same,concentration at 6 h,"female, Sprague-Dawley, rat, plasma, iv, 10 mg/kg, female rats, 6 h, Mean±SD",32.8 ± 13.1 ng/mL
same,concentration at 9 h,"female, Sprague-Dawley, rat, plasma, iv, 10 mg/kg, female rats, 9 h, Mean±SD",25.7 ± 10.1 ng/mL
same,AUC(0-inf),[2],4050 ± 1850 ng·h/mL
same,AUC(0-t),"female, Sprague-Dawley, rat, plasma, iv, 10 mg/kg, female rats, Mean±SD, read-out: AUC(0-t)",4010 ± 1870 ng·h/mL
same,MRT last,[2],36.6 ± 22.2 min
same,MRT inf,[2],54.6 ± 33 min
same,half-life,[2],131 ± 15 min
same,half-life,"female, Sprague-Dawley, rat, plasma, iv, 10 mg/kg, female rats, individual rats 1-3",146 min
same,Plasma concentrations of CK,"male rats, 0.5 min, individual rats 1-3, 10 mg/kg",67670.83 ng/mL and 69233.93 ng/mL
same,Plasma concentrations of CK,"male rats, 0.05 h, individual rats 1-3, 10 mg/kg",11403.43 ng/mL and 18155.87 ng/mL
same,Plasma concentrations of CK,"male rats, 8 min, individual rats 1-3, 10 mg/kg",1214.82 ng/mL and 3002.82 ng/mL and 2609.85 ng/mL
same,Plasma concentrations of CK,"male rats, 0.25 h, individual rats 1-3, 10 mg/kg",664.52 ng/mL and 1307.24 ng/mL
same,Plasma concentrations of CK,"male rats, 0.5 h, individual rats 1-3, 10 mg/kg",214.44 ng/mL and 391.89 ng/mL
same,Plasma concentrations of CK,"male rats, 1 h, individual rats 1-3, 10 mg/kg",75.42 ng/mL and 107.64 ng/mL
same,Plasma concentrations of CK,"male rats, 2 h, individual rats 1-3, 10 mg/kg",41.16 ng/mL and 54.90 ng/mL
same,Plasma concentrations of CK,"male rats, 4 h, individual rats 1-3, 10 mg/kg",42.63 ng/mL and 32.27 ng/mL and 85.89 ng/mL
same,Plasma concentrations of CK,"male rats, 6 h, individual rats 1-3, 10 mg/kg",14.03 ng/mL and 27.30 ng/mL
same,Plasma concentrations of CK,"male rats, 9 h, individual rats 1-3, 10 mg/kg",11.73 ng/mL and 16.36 ng/mL
same,CLz/F,"male rats, Mean±SD",90 ± 18 mL/min/kg
same,Vz/F,"male rats, Mean±SD",24.21 ± 7.69 L/kg
same,AUC(0-t),[3],2963.73 ng·h/mL and 3980.16 ng·h/mL
same,AUC(0-∞),[3],3012.98 ng·h/mL and 4074.46 ng·h/mL
same,CLz/F,[3],77.7 mL/min/kg and 111 mL/min/kg and 81.8 mL/min/kg
same,MRT(0-t),[3],19.2 min and 27.2 min
same,MRT(0-∞),[3],22.8 min and 32.4 min and 47.4 min
same,Vz/F,[3],15.34 L/kg and 28.92 L/kg and 28.37 L/kg
same,t1/2z,[3],181 min and 241 min
same,concentration at 0.5 min,"male, Sprague-Dawley, rat, plasma, iv, 10 mg/kg, male rats, 0.5 min, Mean±SD",71700 ± 5620 ng/mL
same,concentration at 0.5 min,"male, Sprague-Dawley, rat, plasma, iv, 10 mg/kg, male rats, 0.5 min, individual rats 1-3",78100 ng/mL
same,concentration at 0.05 h,"male, Sprague-Dawley, rat, plasma, iv, 10 mg/kg, male rats, 0.05 h, Mean±SD",17100 ± 5230 ng/mL
same,concentration at 0.05 h,"male, Sprague-Dawley, rat, plasma, iv, 10 mg/kg, male rats, 0.05 h, individual rats 1-3",21700 ng/mL
same,concentration at 8 min,"male, Sprague-Dawley, rat, plasma, iv, 10 mg/kg, male rats, 8 min, Mean±SD",2280 ± 940 ng/mL
same,concentration at 0.25 h,"male, Sprague-Dawley, rat, plasma, iv, 10 mg/kg, male rats, 0.25 h, Mean±SD",1080 ± 359 ng/mL
same,concentration at 0.25 h,"male, Sprague-Dawley, rat, plasma, iv, 10 mg/kg, male rats, 0.25 h, individual rats 1-3",1260 ng/mL
same,concentration at 0.5 h,"male, Sprague-Dawley, rat, plasma, iv, 10 mg/kg, male rats, 0.5 h, Mean±SD",333 ± 103 ng/mL
same,concentration at 0.5 h,"male, Sprague-Dawley, rat, plasma, iv, 10 mg/kg, male rats, 0.5 h, individual rats 1-3",393 ng/mL
same,concentration at 1 h,"male, Sprague-Dawley, rat, plasma, iv, 10 mg/kg, male rats, 1 h, Mean±SD",95.5 ± 17.5 ng/mL
same,concentration at 1 h,"male, Sprague-Dawley, rat, plasma, iv, 10 mg/kg, male rats, 1 h, individual rats 1-3",103 ng/mL
same,concentration at 2 h,"male, Sprague-Dawley, rat, plasma, iv, 10 mg/kg, male rats, 2 h, Mean±SD",52.1 ± 9.87 ng/mL
same,concentration at 2 h,"male, Sprague-Dawley, rat, plasma, iv, 10 mg/kg, male rats, 2 h, individual rats 1-3",60.3 ng/mL
same,concentration at 4 h,"male, Sprague-Dawley, rat, plasma, iv, 10 mg/kg, male rats, 4 h, Mean±SD",53.6 ± 28.4 ng/mL
same,concentration at 6 h,"male, Sprague-Dawley, rat, plasma, iv, 10 mg/kg, male rats, 6 h, Mean±SD",20.3 ± 6.66 ng/mL
same,concentration at 6 h,"male, Sprague-Dawley, rat, plasma, iv, 10 mg/kg, male rats, 6 h, individual rats 1-3",19.7 ng/mL
same,concentration at 9 h,"male, Sprague-Dawley, rat, plasma, iv, 10 mg/kg, male rats, 9 h, Mean±SD",12.4 ± 3.64 ng/mL
same,concentration at 9 h,"male, Sprague-Dawley, rat, plasma, iv, 10 mg/kg, male rats, 9 h, individual rats 1-3",9.16 ng/mL
same,AUC(0-inf),[4],3790 ± 685 ng·h/mL
same,AUC(0-t),"male, Sprague-Dawley, rat, plasma, iv, 10 mg/kg, male rats, Mean±SD, read-out: AUC(0-t)",3740 ± 684 ng·h/mL
same,MRT last,[4],21.6 ± 4.8 min
same,MRT inf,[4],34.2 ± 12.6 min
same,half-life,[4],186 ± 52.2 min
same,AUC(0-inf),[5],4290 ng·h/mL
same,AUC(0-t),"male, Sprague-Dawley, rat, plasma, iv, 10 mg/kg, male rats, individual rats 1-3, read-out: AUC(0-t)",4260 ng·h/mL
same,MRT last,[5],18 min
same,half-life,[5],137 min
